# Laboratory results as given in patent publication US12240844B2 (Voronoi, Inc., priority 2019, dated 2025).
# Assays:
# Format in all cases: biochemical
# [1] = molecular target: T1, human GST-DYRK1A (full length) (Homo sapiens, UniProt Q13627); assay: GST-DYRK1A enzyme inhibition, ADP-Glo kinase assay; conditions: read-out: DYRK1 IC50
# T1 construct: purified human GST-DYRK1A (full length, Thermo scientifics) enzyme; GST; purchased Thermo scientifics
# In short: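 Full-length human GST-DYRK1A (10 ng) incubated with 10 uM ATP and specific substrate for 1 h at 25° C in 40 mM Tris-HCl pH 7.4, 20 mM MgCl2, 0.5 mg/mL BSA, 50 uM DTT. ADP formation read by ADP-Glo luminescence; IC50 (nM) versus solvent control, triplicate.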
# human GST-CLK1 (129-end) = molecular target: T2, human GST-CLK1 (129-end) (Homo sapiens, UniProt P49759); assay: GST-CLK1 enzyme inhibition, ADP-Glo kinase assay; conditions: ATP 10 uM
# T2 construct: purified human GST-CLK1 (129-end, Signalchem) enzyme; GST; purchased Signalchem
# In short: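 GST-CLK1 (129-end, 3 ng) reacted with 10 uM ATP and substrate in 40 mM Tris-HCl pH 7.4, 20 mM MgCl2, 0.5 mg/mL BSA, 50 uM DTT, 1 h at 25° C. ADP-Glo luminescence normalised to solvent control; IC50 from triplicate data.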
# LRRK2 = LRRK2 (Homo sapiens, UniProt Q5S007); assay: LRRK2 enzyme inhibition, ADP-Glo kinase assay; parameters: purchased Invitrogen PR8604B
# In short: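 Purified human LRRK2 (25 ng) in 40 mM Tris-HCl pH7.4, 20 mM MgCl2, 0.5 mg/ml BSA, 50 μM DTT with 10 μM ATP and substrate ([…]), 2 h at 25° C. Final compound 50 to 0.000001024 μM, 12-point dilution. ADP-Glo luminescence vs solvent control; IC50 (nM).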
# LRRK2 (G2019S) = LRRK2 (G2019S) (Homo sapiens, UniProt Q5S007, G2019S); assay: LRRK2 G2019S enzyme inhibition, ADP-Glo kinase assay; parameters: purchased SignalChem L10-12GG
# In short: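 Purified human LRRK2 G2019S (16 ng) with 25 μM ATP and 0.2 μg substrate, 2 h at 25° C in 40 mM Tris-HCl pH 7.4, 20 mM MgCl2, 0.5 mg/ml BSA, 50 μM DTT; compound at 12 final concentrations from 50 μM downward. ADP-Glo luminescence versus solvent control gave IC50 (nM).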
# LRRK2, sequence (Q5S007 970-2527 limits assumed): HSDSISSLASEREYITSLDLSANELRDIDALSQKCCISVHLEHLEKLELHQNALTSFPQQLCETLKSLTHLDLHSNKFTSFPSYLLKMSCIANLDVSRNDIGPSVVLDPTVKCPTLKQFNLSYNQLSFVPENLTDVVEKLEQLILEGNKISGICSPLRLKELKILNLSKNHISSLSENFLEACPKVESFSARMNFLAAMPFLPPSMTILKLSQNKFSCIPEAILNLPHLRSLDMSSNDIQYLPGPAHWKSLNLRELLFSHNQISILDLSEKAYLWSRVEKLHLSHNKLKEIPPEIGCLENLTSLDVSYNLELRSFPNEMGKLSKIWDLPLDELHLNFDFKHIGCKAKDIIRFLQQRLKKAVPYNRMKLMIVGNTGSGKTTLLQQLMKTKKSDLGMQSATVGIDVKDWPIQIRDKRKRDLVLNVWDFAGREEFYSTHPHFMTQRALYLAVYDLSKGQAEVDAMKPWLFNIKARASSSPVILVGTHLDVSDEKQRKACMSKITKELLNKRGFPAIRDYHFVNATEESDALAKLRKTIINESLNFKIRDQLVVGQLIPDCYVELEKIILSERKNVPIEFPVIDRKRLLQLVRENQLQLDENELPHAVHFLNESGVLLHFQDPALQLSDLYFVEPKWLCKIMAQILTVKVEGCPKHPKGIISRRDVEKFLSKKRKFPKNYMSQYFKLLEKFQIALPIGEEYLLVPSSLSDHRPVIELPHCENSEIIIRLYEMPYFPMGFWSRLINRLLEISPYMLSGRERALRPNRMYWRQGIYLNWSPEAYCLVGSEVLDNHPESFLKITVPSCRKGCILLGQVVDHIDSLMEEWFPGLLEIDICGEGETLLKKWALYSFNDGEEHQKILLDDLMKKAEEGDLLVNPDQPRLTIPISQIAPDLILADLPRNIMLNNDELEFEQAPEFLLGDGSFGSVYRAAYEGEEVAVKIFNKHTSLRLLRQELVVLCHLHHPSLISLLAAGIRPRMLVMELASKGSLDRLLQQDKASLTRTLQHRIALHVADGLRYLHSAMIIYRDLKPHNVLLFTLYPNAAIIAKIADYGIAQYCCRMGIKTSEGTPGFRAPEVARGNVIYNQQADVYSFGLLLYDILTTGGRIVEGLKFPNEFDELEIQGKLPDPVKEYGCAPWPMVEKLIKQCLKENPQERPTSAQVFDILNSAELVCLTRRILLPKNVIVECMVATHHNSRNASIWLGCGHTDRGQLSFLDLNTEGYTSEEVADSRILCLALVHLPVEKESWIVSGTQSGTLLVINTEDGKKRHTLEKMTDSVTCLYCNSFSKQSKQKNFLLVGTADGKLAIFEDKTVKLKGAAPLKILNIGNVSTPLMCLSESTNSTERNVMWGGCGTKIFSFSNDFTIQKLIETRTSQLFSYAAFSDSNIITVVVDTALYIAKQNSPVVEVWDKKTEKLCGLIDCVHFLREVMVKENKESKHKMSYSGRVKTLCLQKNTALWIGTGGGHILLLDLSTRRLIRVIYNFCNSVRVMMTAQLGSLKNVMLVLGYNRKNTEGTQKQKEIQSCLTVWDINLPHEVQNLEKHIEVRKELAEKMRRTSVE
# T2 sequence (P49759 129-484 limits assumed): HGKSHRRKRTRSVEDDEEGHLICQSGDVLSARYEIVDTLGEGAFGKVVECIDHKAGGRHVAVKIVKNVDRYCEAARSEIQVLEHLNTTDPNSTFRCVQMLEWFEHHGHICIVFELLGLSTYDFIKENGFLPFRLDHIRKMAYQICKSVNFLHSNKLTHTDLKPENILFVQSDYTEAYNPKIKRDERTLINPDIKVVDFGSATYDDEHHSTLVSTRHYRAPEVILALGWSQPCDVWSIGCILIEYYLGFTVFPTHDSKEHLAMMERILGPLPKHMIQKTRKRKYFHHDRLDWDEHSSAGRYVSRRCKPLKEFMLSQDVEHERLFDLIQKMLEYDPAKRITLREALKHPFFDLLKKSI
# LRRK2 (G2019S), sequence (Q5S007 970-2527 G2019S limits assumed): as the sequence (Q5S007 970-2527 limits assumed) above, with G1050S counted along it
Structure (SMILES),IC50 [1],IC50 (human GST-CLK1 (129-end)),IC50 (LRRK2),IC50 (LRRK2 (G2019S))
"CCNc1cc(Nc2ccc(C(=O)N3CCC(N4CCOCC4)CC3)c3c2OCO3)nc2[nH]cc(C(F)(F)F)c12 [Example 37, (7-((4-(ethylamino)-3-(trifluoromethyl)-1H-pyrrolo[2,3-b]pyridin-6-yl)amino)benzo[d][1,3]dioxol-4-yl)(4-morpholinopiperidin-1-yl)methanone]",< 100 nM,< 100 nM,< 100 nM,< 100 nM
"CCNc1cc(Nc2ccc(P3(=O)CCN(C(C)=O)CC3)cc2OC)nc2[nH]cc(C(F)(F)F)c12 [Example 42, 1-(4-(4-((4-(ethylamino)-3-(trifluoromethyl)-1H-pyrrolo[2,3-b]pyridin-6-yl)amino)-3-methoxyphenyl)-4-oxido-1,4-azaphosphinan-1-yl)ethan-1-one]",< 100 nM,101 to 300 nM,< 100 nM,101 to 300 nM
"CCNc1cc(Nc2ccc(C(=O)N3C[C@@H]4C[C@H]3CO4)c3c2OCCO3)nc2[nH]cc(C(F)(F)F)c12 [Example 44, ((1S,4S)-2-oxa-5-azabicyclo[2.2.1]heptan-5-yl)(8-((4-(ethylamino)-3-(trifluoromethyl)-1H-pyrrolo[2,3-b]pyridin-6-yl)amino)-2,3-dihydrobenzo[b] [1,4]dioxin-5-yl)methanone]",< 100 nM,< 100 nM,< 100 nM,–
"COc1cc(P2(=O)CCN(C(C)=O)CC2)ccc1Nc1cc(C2CC2)c2c(C(F)(F)F)c[nH]c2n1 [Example 48, 1-(4-(4-((4-cyclopropyl-3-(trifluoromethyl)-1H-pyrrolo[2,3-b]pyridin-6-yl)amino)-3-methoxyphenyl)-4-oxido-1,4-azaphosphinan-1-yl)ethan-1-one]",–,301 to 1000 nM,301 to 1000 nM,301 to 1000 nM
"O=C(c1ccc(Nc2cc(C3CC3)c3c(C(F)(F)F)c[nH]c3n2)c2c1OCO2)N1CCC(N2CCOCC2)CC1 [Example 49, (7-((4-cyclopropyl-3-(trifluoromethyl)-1H-pyrrolo[2,3-b]pyridin-6-yl)amino)benzo[d][1,3]dioxol-4-yl)(4-morpholinopiperidin-1-yl)methanone]",–,< 100 nM,< 100 nM,–
"O=C(c1ccc(Nc2cc(C3CC3)c3c(C(F)(F)F)c[nH]c3n2)c2c1CCO2)N1CCOCC1 [Example 91, (7-((4-cyclopropyl-3-(trifluoromethyl)-1H-pyrrolo[2,3-b]pyridin-6-yl)amino)-2,3-dihydrobenzofuran-4-yl)(morpholino) methanone]",–,–,301 to 1000 nM,301 to 1000 nM
"O=C(c1ccc(Nc2cc(C3CC3)c3c(C(F)(F)F)c[nH]c3n2)c2c1CCO2)N1CCC(N2CCOCC2)CC1 [Example 93, (7-((4-cyclopropyl-3-(trifluoromethyl)-1H-pyrrolo[2,3-b]pyridin-6-yl)amino)-2,3-dihydrobenzofuran-4-yl)(4-morpholinopiperidin-1-yl)mthanone]",–,< 100 nM,< 100 nM,< 100 nM
"CNc1cc(Nc2ccc(P3(=O)CCN(C4CC4)CC3)cc2OC)nc2[nH]cc(C#N)c12 [Example 146, 6-((4-(1-cyclopropyl-4-oxido-1,4-azaphosphinan-4-yl)-2-methoxyphenyl)amino)-4-(methylamino)-1H-pyrrolo[2,3-b]pyridine-3-carbonitrile]",301 to 1000 nM,301 to 1000 nM,< 100 nM,–
"COCCNc1cc(Nc2ccc(P3(=O)CCN(C4CC4)CC3)cc2OC)nc2[nH]cc(C#N)c12 [Example 148, 6-((4-(1-cyclopropyl-4-oxido-1,4-azaphosphinan-4-yl)-2-methoxyphenyl)amino)-4-((2-methoxyethyl)amino)-1H-pyrrolo[2,3-b]pyridine-3-carbonitrile]",301 to 1000 nM,301 to 1000 nM,< 100 nM,–
"CCNc1cc(Nc2ccc(C(=O)N3CCN(C4COC4)CC3)c3c2OCCO3)nc2[nH]cc(C(F)(F)F)c12 [Example 173, (8-((4-(ethylamino)-3-(trifluoromethyl)-1H-pyrrolo[2,3-b]pyridin-6-yl)amino)-2,3-dihydrobenzo[b] [1,4]dioxin-5-yl)(4-(oxetan-3-yl)piperazin-1-yl)methanone]",< 100 nM,< 100 nM,< 100 nM,–
"CNc1cc(Nc2ccc(S(=O)(=O)N3CCC(N4CCOCC4)CC3)cc2OC)nc2[nH]cc(C(F)(F)F)c12 [Example 184, N^6-(2-methoxy-4-((4-morpholinopiperidin-1-yl)sulfonyl)phenyl)-N^4-methyl-3-(trifluoromethyl)-1H-pyrrolo[2,3-b]pyridine-4,6-diamine]",–,–,–,< 100 nM
"CCNc1cc(Nc2ccc(P3(=O)CCN(C4CC4)CC3)cc2OC)nc2[nH]cc(C(F)(F)F)c12 [Example 206, 1-cyclopropyl-4-(4-((4-(ethylamino)-3-(trifluoromethyl)-1H-pyrrolo[2,3-b]pyridin-6-yl)amino)-3-methoxyphenyl)-1,4-azaphosphinane 4-oxide]",301 to 1000 nM,301 to 1000 nM,101 to 300 nM,–
"CNc1cc(Nc2ccc(C(=O)N3CC[C@H](N4CCOCC4)C3)c3c2OCC3)nc2[nH]cc(C(F)(F)F)c12 [Example 217, (S)-(7-((4-(methylamino)-3-(trifluoromethyl)-1H-pyrrolo[2,3-b]pyridin-6-yl)amino)-2,3-dihydrobenzofuran-4-yl)(3-morpholinopyrrolidin-1-yl)methanone]",< 100 nM,< 100 nM,< 100 nM,–
"O=C(c1ccc(Nc2cc(C3CC3)c3c(C(F)(F)F)c[nH]c3n2)c2c1OCCO2)N1CCC(N2CCOCC2)CC1 [Example 221, (8-((4-cyclopropyl-3-(trifluoromethyl)-1H-pyrrolo[2,3-b]pyridin-6-yl)amino)-2,3-dihydrobenzo [b] [1,4]dioxin-5-yl)(4-morpholinopiperidin-1-yl)methanone]",–,< 100 nM,101 to 300 nM,101 to 300 nM
"COc1cc(S(=O)(=O)N2CCOCC2)ccc1Nc1cc(C2CC2)c2c(C(F)(F)F)c[nH]c2n1 [Example 222, 4-cyclopropyl-N-(2-methoxy-4-(morpholinosulfonyl)phenyl)-3-(trifluoromethyl)-1H-pyrrolo[2,3-b]pyridin-6-amine]",–,301 to 1000 nM,301 to 1000 nM,301 to 1000 nM
"N#Cc1c[nH]c2nc(Nc3ccc(C(=O)N4CCOCC4)c4c3OCCO4)cc(C3CC3)c12 [Example 225, 4-cyclopropyl-6-((8-(morpholine-4-carbonyl)-2,3-dihydrobenzo[b] [1,4]dioxin-5-yl)amino)-1H-pyrrolo[2,3-b]pyridine-3-carbonitrile]",–,301 to 1000 nM,< 100 nM,< 100 nM
"N#Cc1c[nH]c2nc(Nc3ccc(C(=O)N4CCC(N5CCOCC5)CC4)c4c3OCCO4)cc(C3CC3)c12 [Example 226, 4-cyclopropyl-6-((8-(4-morpholinopiperidine-1-carbonyl)-2,3-dihydrobenzo[b] [1,4]dioxin-5-yl)amino)-1H-pyrrolo[2,3-b]pyridine-3-carbonitrile]",–,< 100 nM,< 100 nM,< 100 nM
"COc1cc(S(=O)(=O)N2CCC(N3CCOCC3)CC2)ccc1Nc1cc(C2CC2)c2c(C#N)c[nH]c2n1 [Example 228, 4-cyclopropyl-6-((2-methoxy-4-((4-morpholinopiperidin-1-yl)sulfonyl)phenyl)amino)-1H-pyrrolo[2,3-b]pyridine-3-carbonitrile]",–,301 to 1000 nM,< 100 nM,< 100 nM
"CCNc1cc(Nc2ccc(C(=O)N3CCC(N4C[C@H]5C[C@@H]4CO5)CC3)c3c2OCC3)nc2[nH]cc(C(F)(F)F)c12 [Example 244, (4-((1R,4R)-2-oxa-5-azabicyclo[2.2.1]heptan-5-yl)piperidin-1-yl)(7-((4-(ethylamino)-3-(trifluoromethyl)-1H-pyrrolo[2,3-b]pyridin-6-yl)amino)-2,3-dihydrobenzofuran-4-yl)methanone]",< 100 nM,< 100 nM,–,< 100 nM
"CCNc1cc(Nc2ccc(C(=O)N3CCN(C4COC4)CC3)c3c2OCC3)nc2[nH]cc(C(F)(F)F)c12 [Example 248, (7-((4-(ethylamino)-3-(trifluoromethyl)-1H-pyrrolo[2,3-b]pyridin-6-yl)amino)-2,3-dihydrobenzofuran-4-yl)(4-(oxetan-3-yl)piperazin-1-yl)methanone]",< 100 nM,< 100 nM,–,< 100 nM
"CCNc1cc(Nc2cc(F)c(S(=O)(=O)N3CCC(N4CCOCC4)CC3)cc2OC)nc2[nH]cc(C(F)(F)F)c12 [Example 266, N^4-ethyl-N^6-(5-fluoro-2-methoxy-4-((4-morpholinopiperidin-1-yl)sulfonyl)phenyl)-3-(trifluoromethyl)-1H-pyrrolo[2,3-b]pyridine-4,6-diamine]",301 to 1000 nM,301 to 1000 nM,–,101 to 300 nM
